In patent publication US20150238401A1, “PROPYL-PHENYL-ETHER DERIVATIVE, AND MELANOGENESIS INHIBITOR, SKIN-LIGHTENING AGENT, ANTIMICROBIAL AGENT AND COSMETIC CONTAINING SAID PROPYL-PHENYL-ETHER DERIVATIVE” (SEIWA KASEI COMPANY, LIMITED, priority 2012, published 2015):

Experiments:
[1] = tested on: Propionibacterium acnes (JCM6415); test: Anti-acne test (growth in GAM bouillon medium, OD620); format: cell-based; conditions: sample final concentration 0.1%, 37° C., anaerobic, 48 hours
Method: Propionibacterium acnes (JCM6415: ATCC strain) was transplanted to GAM bouillon medium (manufactured by Nissui Pharmaceutical Co., Ltd.), and cultured at 37° C. under anaerobic condition for 24 hours. Thereafter, it was diluted with GAM bouillon medium so that the final bacterium concentration was OD620=0.1, and this was used as a test bacterium solution. In examples, the propyl-phenyl-ether derivative was weighed so that the final concentration was 0.1%, dissolved in GAM bouillon medium, then, filter-sterilization was performed. The resultant solution was used as a sample solution. The test bacterium solution was added in an amount of 30 μL and the sample solution was added in an amount of 120 μL to a 96-well microplate (manufactured by Sumitomo Bakelite Co., Ltd.), then, immediately, the micro plate and AnaeroPack-KENKI (manufactured by Mitsubishi Gas Chemical Co., Inc.) were placed into an anaerobic jar (manufactured by Mitsubishi Gas Chemical Co., Inc.), and culture was carried out at 37° C. under anaerobic condition for 48 hours. Thereafter, OD620 was measured by a microplate reader. The same test was conducted using methylparaben, phenoxyethanol and sodium ascorbate as comparative compounds.
The results are classified by the following criteria and shown in Table 5-Table 7. • Δ: OD620 is 0.6 or more • ◯: OD620 is 0.3-0.6 • ⊚: OD620 is 0.3 or less

[2] = tested on: B16 melanoma 4A5 cell; test: Melanogenesis inhibiting test (theophylline-induced melanine production); format: cell-based; conditions: B16 mouse melanoma 4A5, theophylline 1.0 mmol/L, 3 days culture, N=4; for IC40: B16 melanoma 4A5, 72 h, read-out: Judgment: sample concentration showing the melanogenesis inhibiting ratio of 40% or more
Method: As a test for a skin-lightening effect, evaluation of the action of B16 melanoma 4A5 cell on theophylline-induced melanine production was carried out on propyl-phenyl-ether derivatives of the present invention, according to the following procedure. (1) B16 mouse melanoma 4A5 strain was sowed onto a 48-well plate at a cell density of 8.0×10^3 cells/well. (2) Culturing was performed for 24 hours with Dulbecco's Modified Eagle's medium (manufactured by SIGMA. Hereinafter, abbreviated as D-MEM) containing 10% fetal bovine serum (manufactured by Nichirei Biosciences Inc.). […] (3) After culturing for 3 days in the co-existence of a sample, the medium was removed using an aspirator. Then, after distilled water was added, cells were broken by an ultrasonic wave. (4) Thereafter, the amount of protein was determined using BCA protein assay kit (manufactured by Thermo Fisher Scientific Inc.), and the produced amount of melanine was measured by an alkali solubilizing method described below. [Alkali Solubilizing Method] To the cell-destructed solution was added sodium hydroxide so as to give a final concentration of 1 mol/L and the mixture was dissolved by heating (60° C., 30 minutes), then, the absorbance at 450 nm was measured using a micro plate reader. The melanine amount was calculated from a calibration curve made using synthetic melanine (SIGMA) as a standard. The melanine amount per unit protein was calculated by dividing the melanine amount by the protein amount. (5) The melanine production suppressing rate was calculated according to the following formula. Melanine production suppressing rate (%)=[1−(A−B)/(C−B)]×100 [wherein, A represents the melanine amount per unit protein (g/g) in adding a sample, B represents the melanine amount per unit protein (g/g) in the normal group, and C represents the melanine amount per unit protein (g/g) in the control group.] In the above, Normal group is a case of theophylline (−; no addition) and sample (−; no addition), and Control group is a case of theophylline (+; addition) and sample (−; no addition). (6) Determination of Skin-Lightening Effect The amount of a sample required for adjusting the melanogenesis inhibiting ratio to 40% or more was measured, and the effect was evaluated by the following criteria based on the measured amount. The measurement was conducted at N=4 (4 wells per sample). The skin-lightening effect is expressed as described below based on the sample concentration showing the melanogenesis inhibiting ratio of 40% or more. The measurement was conducted at N=4.

Row | SMILES | Judgment: OD620 after culture [1] | IC40 [2] [µM] | Judgment: sample concentration showing the melanogenesis inhibiting ratio of 40% or more [2]
1 | CCOC(CO)COc1ccc(C(C)(C)C)cc1 (stereo not drawn) [2-O-ethyl-1-hydroxy-3-(4′-tert-butylphenoxy)propyl] | ⊚⊚ | ≤ 30 | 
2 | CC(O)COc1ccc(C(C)(C)C)cc1 (stereo not drawn) [Example 2, 2-hydroxy-3-(4′-tert-butylphenoxy)propyl] | ⊚ (⊚: OD620 is 0.3 or less) | 30 to 100 | 
3 | CCOCC(O)COc1ccc(C(C)CC)cc1 (stereo not drawn) [Example 4, 1-O-ethyl-2-hydroxy-3-(4′-sec-butylphenoxy)propyl] | ⊚ (⊚: OD620 is 0.3 or less) |  | ⊚ (30 to 100 μmol/L: ⊚)
4 | CC(C)(C)c1ccc(OCC(O)COc2ccc(C(C)(C)C)cc2)cc1 [Example 8, 2-hydroxy-1,3-di-(4′-tert-butylphenoxy)propyl] | ⊚⊚ | ≤ 30 | 
5 | CC(C)(C)c1ccc(OCC(O)COc2ccc(O)cc2)cc1 (stereo not drawn) [Example 9, 1-(4″-hydroxyphenoxy)-2-hydroxy-3-(4′-tert-butylphenoxy)propyl] | ⊚ (⊚: OD620 is 0.3 or less) | 30 to 100 | 
6 | CC(C)(C)c1ccc(OCC(O)COCC(O)COc2ccc(C(C)(C)C)cc2)cc1 (stereo not drawn) [Example 10, di[2-hydroxy-3-(4′-tert-butylphenoxy)propyl]ether] | ⊚ (⊚: OD620 is 0.3 or less) | 100 to 300 | 
7 | CCCCc1ccc(OCC(O)CO)cc1 (stereo not drawn) [Example 12, 1,2-di-hydroxy-3-(4′-n-butylphenoxy)propyl] | ◯ (◯: OD620 is 0.3-0.6) | 30 to 100 | 
8 | CC(C)c1ccc(OCC(O)CO)cc1 (stereo not drawn) [Example 13, 1,2-di-hydroxy-3-(4′-isopropylphenoxy)propyl] | ⊚ (⊚: OD620 is 0.3 or less) | 30 to 100 | 
9 | CCc1ccc(OCC(O)CO)cc1 (stereo not drawn) [Example 14, 1,2-di-hydroxy-3-(4′-ethylphenoxy)propyl] | ⊚ (⊚: OD620 is 0.3 or less) | 100 to 300 | 
10 | CCC(C)(C)c1ccc(OCC(O)CO)cc1 (stereo not drawn) [Example 15, 1,2-di-hydroxy-3-(4′-tert-amylphenoxy)propyl] | ⊚⊚ | ≤ 30 | 
11 | CC(C)(c1ccccc1)c1ccc(OCC(O)CO)cc1 (stereo not drawn) [Example 16, 1,2-di-hydroxy-3-(4′-α-cumylphenoxy)propyl] | ⊚ (⊚: OD620 is 0.3 or less) | 30 to 100 | 
12 | CC(C)(C)CC(C)(C)c1ccc(OCC(O)CO)cc1 (stereo not drawn) [Example 17, 1,2-di-hydroxy-3-[4′-(1″,1″,3″,3″-tetramethylbutyl)phenoxy]propyl] | ⊚⊚ | ≤ 30 | 
13 | CC(C)(C)c1ccc(OCCCO)cc1 [Example 18, 1-hydroxy-3-(4′-tert-butylphenoxy)propyl] | ⊚ (⊚: OD620 is 0.3 or less) | 30 to 100 | 
14 | CCC(C)c1cccc(C(C)CC)c1OCC(O)CO (stereo not drawn) [Example 19, 1,2-di-hydroxy-3-(2′,6′-di-sec-butylphenoxy)propyl] | ⊚⊚ | ≤ 30 | 
15 | CC(C)(C)c1ccc(OCC(O)CO)c(C(C)(C)C)c1 (stereo not drawn) [Example 20, 1,2-di-hydroxy-3-(2′,4′-di-tert-butylphenoxy)propyl] | ⊚⊚ | ≤ 30 | 
16 | Cc1cc(OCC(O)CO)c(C(C)(C)C)cc1C(C)(C)C (stereo not drawn) [Example 21, 1,2-di-hydroxy-3-(2′,4′-di-tert-butyl-5′-methylphenoxy)propyl] | ⊚⊚ | ≤ 30 | 

Row | SMILES | Judgment: OD620 after culture [1] | IC40 [2] [µM] | Judgment: sample concentration showing the melanogenesis inhibiting ratio of 40% or more [2]
17 | Cc1cc(C(C)(C)C)c(OCC(O)CO)c(C(C)(C)C)c1 (stereo not drawn) [Example 22, 1,2-di-hydroxy-3-(2′,6′-di-tert-butyl-4′-methylphenoxy) propyl] | ⊚⊚ | ≤ 30 | 
18 | COc1ccc(OCC(O)CO)c(C(C)(C)C)c1 (stereo not drawn) [Example 23, 1,2-di-hydroxy-3-(2′-tert-butyl-4′-methoxylphenoxy)propyl] | ⊚ (⊚: OD620 is 0.3 or less) | 30 to 100 | 
19 | COc1ccc(OCC(O)CO)cc1C(C)(C)C (stereo not drawn) [Example 24, 1,2-di-hydroxy-3-(3′-tert-butyl-4′-methoxylphenoxy)propyl] | ⊚ (⊚: OD620 is 0.3 or less) | 30 to 100 | 
20 | CC(C)(c1ccc(OCC(O)CO)cc1)c1ccc(OCC(O)CO)cc1 (stereo not drawn) [Example 25] | ⊚⊚ | ≤ 30 | 
21 | CCCCC(CC)COCC(O)COc1ccccc1C(C)CC (stereo not drawn) [Example 26, 1-O-(2″-ethylhexyl)-2-hydroxy-3-(2′-sec-butylphenoxy) propyl] | ⊚ (⊚: OD620 is 0.3 or less) | 30 to 100 | 
22 | CCOCC(O)COc1ccccc1C(C)CC (stereo not drawn) [Example 27, 1-O-ethyl-2-hydroxy-3-(2′-sec-butylphenoxy)propyl] | ⊚ (⊚: OD620 is 0.3 or less) | 30 to 100 | 
23 | CCOCC(O)COc1ccc(C(C)(C)c2ccccc2)cc1 (stereo not drawn) [Example 28, 1-O-ethyl-2-hydroxy-3-(4′-α-cumylphenoxy)propyl] | ⊚⊚ | ≤ 30 | 
24 | CCOCC(O)COc1ccc(C(C)C)c(C)c1 (stereo not drawn) [Example 29, 1-O-ethyl-2-hydroxy-3-(3′-methyl-4′-isoproylphenoxy)propyl] | ⊚⊚ | ≤ 30 | 
25 | CCOCC(O)COc1c(C(C)CC)cccc1C(C)CC (stereo not drawn) [Example 30, 1-O-ethyl-2-hydroxy-3-(2′,6′-di-sec-butylphenoxy)propyl] | ⊚⊚ | ≤ 30 | 
26 | Cc1cc(OCC(O)CO)ccc1C(C)C (stereo not drawn) [Example 31, 1,2-di-hydroxy-3-(3′-methyl-4′-isoproylphenoxy)propyl] | ⊚⊚ | ≤ 30 | 
27 | CCOCC(O)COc1ccc(C(C)(C)c2ccc(OCC(O)COCC)cc2)cc1 (stereo not drawn) [Example 32, 2,2-bis[4′-(1″-O-ethyl-2″-hydroxypropoxy)phenyl]propane] | ⊚⊚ | ≤ 30 | 
28 | CCOCC(O)COc1ccc(C(C)(C)CC(C)(C)C)cc1 (stereo not drawn) [Example 33, 1-O-ethyl-2-hydroxy-3-[4′-(1″,1″,3″,3″-tetramethylbutyl)phenoxy]propyl] | ⊚ (⊚: OD620 is 0.3 or less) | 30 to 100 | 
29 | COC(=O)c1ccc(O)cc1 [Methylparaben, reference compound] | Δ (Δ: OD620 is 0.6 or more) |  | 
30 | O=C1O[C@H]([C@@H](O)CO)C([O-])=C1O.[Na+] [Sodium Ascorbate, reference compound] | Δ (Δ: OD620 is 0.6 or more) |  | 
31 | CCCOc1ccc(C(C)(C)C)cc1 [Synthesis Example 1, 1-(4′-tert-butylphenoxy)propyl, reference compound] | Δ (Δ: OD620 is 0.6 or more) | ≥ 300 | 
